Test results: the NIST ThermoML archive (doi:10.1016/j.jct.2008.01.006)
Numbers after ± are expanded uncertainties.

Conditions: Liquid, Vibrating tube method

CCCCCCN [1-hexanamine]
mass density [kg/m3]
Conditions	293.15 K	303.15 K	313.15 K	323.15 K	333.15 K	343.15 K	353.15 K
100 kPa	765.1 ± 0.3	756.2 ± 0.4	748.2 ± 0.4	738.9 ± 0.4	730.2 ± 0.4	721.3 ± 0.4	712.4 ± 0.5
10000 kPa	771.5 ± 0.4	763.5 ± 0.4	755.4 ± 0.4	746.9 ± 0.5	738.7 ± 0.5	730.6 ± 0.5	722.3 ± 0.5
20000 kPa	777.6 ± 0.5	770.2 ± 0.5	762.3 ± 0.5	754.2 ± 0.5	746.3 ± 0.5	738.8 ± 0.6	731.1 ± 0.6
30000 kPa	783.4 ± 0.6	776.3 ± 0.6	768.6 ± 0.6	761 ± 0.6	753.4 ± 0.6	746.4 ± 0.6	739 ± 0.7
40000 kPa	788.8 ± 0.6	781.9 ± 0.7	774.6 ± 0.7	767.2 ± 0.7	759.9 ± 0.7	753.2 ± 0.7	746 ± 0.8
50000 kPa	793.8 ± 0.7	787.2 ± 0.7	780.2 ± 0.8	772.9 ± 0.8	765.9 ± 0.8	759.6 ± 0.8	752.5 ± 0.9
60000 kPa	798.8 ± 0.8	792.2 ± 0.8	785.3 ± 0.8	778.4 ± 0.9	771.6 ± 0.9	765.6 ± 0.9	759 ± 0.9
70000 kPa	803.3 ± 0.9	796.9 ± 0.9	790.3 ± 0.9	783.5 ± 1	776.9 ± 1	771 ± 1	764.6 ± 1
80000 kPa	807.7 ± 1	801.5 ± 1	794.9 ± 1	788.4 ± 1	781.9 ± 1.1	776.2 ± 1.1	770 ± 1.1
90000 kPa	811.9 ± 1	805.8 ± 1.1	799.4 ± 1.1	792.9 ± 1.1	786.7 ± 1.2	781.1 ± 1.2	775.1 ± 1.2
100000 kPa	815.9 ± 1.1	810 ± 1.1	803.7 ± 1.2	797.3 ± 1.2	791.2 ± 1.2	785.9 ± 1.3	780 ± 1.3
110000 kPa	819.8 ± 1.2	814 ± 1.2	807.8 ± 1.2	801.7 ± 1.3	795.7 ± 1.3	790.3 ± 1.3	784.6 ± 1.4
120000 kPa	823.5 ± 1.2	817.9 ± 1.3	811.7 ± 1.3	805.8 ± 1.3	799.9 ± 1.4	794.6 ± 1.4	789.1 ± 1.5
130000 kPa	827.1 ± 1.3	821.6 ± 1.3	815.5 ± 1.4	809.7 ± 1.4	803.8 ± 1.5	798.8 ± 1.5	793.2 ± 1.5
140000 kPa	830.5 ± 1.4	825.1 ± 1.4	819.1 ± 1.4	813.5 ± 1.5	807.6 ± 1.5	802.7 ± 1.6	797.3 ± 1.6

CCCCCN [1-pentanamine]
mass density [kg/m3]
Conditions	293.15 K	303.15 K	313.15 K	323.15 K	333.15 K	343.15 K	353.15 K
100 kPa	754.1 ± 0.4	744.7 ± 0.4	735.6 ± 0.4	726.4 ± 0.4	716.9 ± 0.4	707.5 ± 0.5	698 ± 0.5
10000 kPa	760.9 ± 0.4	752.6 ± 0.5	743.8 ± 0.5	735.1 ± 0.5	726.1 ± 0.5	717.8 ± 0.5	708.7 ± 0.6
20000 kPa	767.4 ± 0.5	759.6 ± 0.5	751.1 ± 0.5	742.8 ± 0.6	734.3 ± 0.6	726.5 ± 0.6	718 ± 0.6
30000 kPa	773.4 ± 0.6	765.9 ± 0.6	757.9 ± 0.6	749.8 ± 0.6	741.7 ± 0.7	734.4 ± 0.7	726.3 ± 0.7
40000 kPa	778.9 ± 0.7	772 ± 0.7	764.1 ± 0.7	756.3 ± 0.7	748.5 ± 0.8	741.6 ± 0.8	733.9 ± 0.8
50000 kPa	784.2 ± 0.8	777.4 ± 0.8	769.8 ± 0.8	762.3 ± 0.8	754.8 ± 0.9	748.2 ± 0.9	740.8 ± 0.9
60000 kPa	789.3 ± 0.8	782.7 ± 0.9	775.2 ± 0.9	768 ± 0.9	760.7 ± 0.9	754.3 ± 1	747.4 ± 1
70000 kPa	794 ± 0.9	787.4 ± 1	780.3 ± 1	773.2 ± 1	766.3 ± 1	760 ± 1.1	753.3 ± 1.1
80000 kPa	798.5 ± 1	792.1 ± 1	785.1 ± 1.1	778.2 ± 1.1	771.5 ± 1.1	765.4 ± 1.2	759.1 ± 1.2
90000 kPa	802.8 ± 1.1	796.5 ± 1.1	789.7 ± 1.1	783 ± 1.2	776.5 ± 1.2	770.6 ± 1.2	764.2 ± 1.3
100000 kPa	806.9 ± 1.2	800.8 ± 1.2	794.1 ± 1.2	787.6 ± 1.3	781.1 ± 1.3	775.4 ± 1.3	769.3 ± 1.4
110000 kPa	810.8 ± 1.2	805 ± 1.3	798.4 ± 1.3	792.1 ± 1.3	785.6 ± 1.4	780.1 ± 1.4	774.1 ± 1.4
120000 kPa	814.7 ± 1.3	808.8 ± 1.3	802.4 ± 1.4	796.2 ± 1.4	790 ± 1.5	784.4 ± 1.5	778.6 ± 1.5
130000 kPa	818.4 ± 1.4	812.5 ± 1.4	806.4 ± 1.4	800.3 ± 1.5	794.2 ± 1.5	788.7 ± 1.6	782.9 ± 1.6
140000 kPa	822 ± 1.4	816.1 ± 1.5	810.1 ± 1.5	804.2 ± 1.6	798 ± 1.6	792.8 ± 1.6	787.2 ± 1.7
